# Source: ChEMBL document CHEMBL1133224, “New ratiometric fluorescent calcium indicators with moderately attenuated binding affinities” (Bioorg Med Chem Lett, 2000)
# Assay: Calcium binding affinity (fluorescent calcium probe) expressed in terms of dissociation constant
row,SMILES,Kd [nM]
1,O=C(O)CN(CC(=O)O)c1cc2oc(-c3ncc(C(=O)O)o3)cc2cc1OCCOc1c(F)cccc1N(CC(=O)O)CC(=O)O,5300
2,Cc1ccc(N(CC(=O)O)CC(=O)O)c(OCCOc2cc3cc(-c4ncc(C(=O)O)o4)oc3cc2N(CC(=O)O)CC(=O)O)c1,140
3,O=C(O)CN(CC(=O)O)c1ccc(F)cc1OCCOc1cc2cc(-c3ncc(C(=O)O)o3)oc2cc1N(CC(=O)O)CC(=O)O,400
4,O=C(O)CN(CC(=O)O)c1ccc(F)cc1OCCOc1cc(-c2nc3cc(C(F)(F)F)ccc3s2)ccc1N(CC(=O)O)CC(=O)O,1400
5,Cc1ccc(N(CC(=O)O)CC(=O)O)c(OCCOc2cc(-c3nc4cc(C(F)(F)F)ccc4s3)ccc2N(CC(=O)O)CC(=O)O)c1,660

# The remaining compounds from weak to strong by Kd, led by results:
row,Kd [nM],SMILES
1,770,O=C(O)CN(CC(=O)O)c1cc(F)ccc1OCCOc1cc2cc(-c3ncc(C(=O)O)o3)oc2cc1N(CC(=O)O)CC(=O)O
2,470,O=C(O)CN(CC(=O)O)c1ccc(F)cc1OCCOc1cc(-c2cc3ccc(C(=O)O)cc3[nH]2)ccc1N(CC(=O)O)CC(=O)O
3,400,O=C(O)CN(CC(=O)O)c1ccc(Cl)cc1OCCOc1cc2cc(-c3ncc(C(=O)O)o3)oc2cc1N(CC(=O)O)CC(=O)O
4,230,Cc1ccc(N(CC(=O)O)CC(=O)O)c(OCCOc2cc(-c3cc4ccc(C(=O)O)cc4[nH]3)ccc2N(CC(=O)O)CC(=O)O)c1
